We go through two compounds from paper doi:10.1101/2022.12.23.521429v4, “Structural perspective on the design of selective DYRK1B inhibitors” (biorxiv, 2025).

Experiment [1] has as its target T1, DYRK1A kinase domain (126-490) (Homo sapiens, UniProt Q13627).
T1 construct: also printed 124-490 in b15 and 126-489), non-cleavable C-terminal His-tag kept; E. coli LOBSTR; Tyr321 phosphorylated; b63 prints Q9Y463 (swapped with DYRK1B)
As to the kind of experiment: kinase activity assay. Conditions: co-substrate and buffer of the KM determination not told. Format: biochemical.

The target in experiment [2] is T2, DYRK1B kinase domain (78-442) (Homo sapiens, UniProt Q9Y463).
T2 construct: kinase domain 78-442, C-terminal TEV site and His-tag (ENLYFQ*GHHHHHH), His-tag cleaved by TEV; E. coli LOBSTR; Tyr273 autophosphorylated
In words: Sypro Orange thermal shift assay. Format: binding. Conditions: read-out: shift in Tm.

Each structure is given as a SMILES string.

Regarding `Nc1ncnc2c1ncn2[C@@H]1O[C@H](COP(=O)(O)OP(=O)(O)OP(=O)(O)O)[C@@H](O)[C@H]1O` [ATP], the Michaelis constant (Km) (in general, the concentration of substrate that gives half-maximal velocity) in experiment [1] came out at 118 µM.

As for `COc1cc(N2CCN(C)CC2)ccc1Nc1nccc(-c2cn(C)c3cnccc23)n1` [AZ191], the ΔTm at 10 µM in experiment [2] was determined as 12 °C.
